Results on one compound are retold here after patent publication EP1433779A1, “Use of nitriles as inhibitors of non-proteolytic enzymes” (Jerini AG, priority 2002, dated 2004).

Assay in all cases: biochemical
Assay [1] addresses Human Cyclosporin A receptor with 18 kDa molecular weight, hCyp18 (Homo sapiens, UniProt P62937).
In assay [2] the target is T1, Bacterial Juglon sensitive non proteolytic enzyme, EcParv (Escherichia coli, UniProt P0A9L5).
T1 sequence (P0A9L5 1-93): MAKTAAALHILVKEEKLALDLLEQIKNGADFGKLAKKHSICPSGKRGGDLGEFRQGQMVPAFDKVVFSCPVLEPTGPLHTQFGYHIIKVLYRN

Assay [3] addresses First described human Rapamycin receptor, hFKBP12 (Homo sapiens, UniProt P62942).
Assay [4] addresses Leishmonia pneumophila virulence Cyclosporin A receptor with 18 kDa molecular weight, LpCyp18 (Legionella pneumophila subsp. pneumophila, UniProt Q5ZRZ4).

Leishmonia pneumophila virulence Cyclosporin A receptor with 18 kDa molecular weight, LpCyp18, sequence (Q5ZRZ4 1-164 limits assumed): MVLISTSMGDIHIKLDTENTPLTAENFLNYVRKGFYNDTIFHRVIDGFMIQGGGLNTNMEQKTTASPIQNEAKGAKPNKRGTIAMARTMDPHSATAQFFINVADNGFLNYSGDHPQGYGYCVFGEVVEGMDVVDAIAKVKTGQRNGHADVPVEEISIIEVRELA
Human Cyclosporin A receptor with 18 kDa molecular weight, hCyp18, sequence (P62937 whole entry): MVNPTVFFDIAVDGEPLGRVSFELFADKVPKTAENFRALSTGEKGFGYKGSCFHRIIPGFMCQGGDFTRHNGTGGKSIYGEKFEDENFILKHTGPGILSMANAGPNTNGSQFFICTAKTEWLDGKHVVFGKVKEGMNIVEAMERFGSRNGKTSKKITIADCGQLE
First described human Rapamycin receptor, hFKBP12, sequence (P62942 whole entry): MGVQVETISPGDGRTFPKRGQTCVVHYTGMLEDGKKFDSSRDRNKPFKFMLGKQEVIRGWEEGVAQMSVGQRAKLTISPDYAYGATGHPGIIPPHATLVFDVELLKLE

For `N#CCCNC(=S)Nc1ccc([N+](=O)[O-])cc1` [Compound 4], the IC50 (in general, the concentration needed to halve the response being measured) in assay [1] was greater than 100 µM; in assay [2] it was 10 to 50 µM; in assay [3] it was greater than 100 µM; in assay [4], greater than 100 µM.
